The values that follow come from ChEMBL document CHEMBL1201862, “PubChem BioAssay data set” (2004).

Test systems include 786-0; DU-145; EKVX; HL-60; IGROV-1; MDA-MB-231; MDA-N; NCI-H226; OVCAR-8; SF-268; SF-539; SK-MEL-28; SN12C; SR; U-251; UO-31; CCRF-CEM; HCC 2998; SNB-75.
Assay in all cases: inhibition of tumour cell growth, NCI panel, 48 h

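In this assay, cells in 96-well plates receive the compound at five concentrations for 48 hours. Endpoints are linearly interpolated between the surrounding concentrations. GI50: concentration for 50% inhibition of growth.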 Active and inactive are the calls of the source. No stated cut-off is given here; in the data, active = GI50 up to about 1.1 µM and inactive = higher.

With `N#CC(C#N)=CNCCN1CCN(C=C(C#N)C#N)CC1`, the GI50 in the assay with 786-0, with DU-145, in the assay with EKVX, in the assay on HL-60, in the assay with IGROV-1 and in the assay on MDA-MB-231 was > 100 µM (inactive) each time. For the same molecule, the GI50 in the assay on MDA-N, in the assay with NCI-H226, with OVCAR-8, in the assay on SF-268, with SF-539 and in the assay on SK-MEL-28 was > 100 µM (inactive) throughout. In addition, the GI50 in the assay on SN12C, in the assay with SR, in the assay with U-251 and in the assay on UO-31 was > 100 µM (inactive) each time.

Turning to `CCSc1s/c(=N/c2ccc(/N=c3\sc(C)c(SC)s3)cc2)sc1-c1ccc(C)cc1`, the GI50 in the assay on 786-0, with CCRF-CEM, in the assay with DU-145, with EKVX, in the assay on HCC 2998 and in the assay on HL-60 was > 100 µM (inactive) each time. Further, the GI50 in the assay on IGROV-1, in the assay on MDA-MB-231, with MDA-N, in the assay with OVCAR-8, in the assay on SF-268 and with SF-539 was > 100 µM (inactive) in each case. Besides, the GI50 with SK-MEL-28 is > 100 µM (inactive); in the assay with SN12C, > 100 µM (inactive); with SNB-75, 32 µM (inactive); with SR it was > 100 µM (inactive); in the assay on U-251, > 100 µM (inactive); in the assay on UO-31 it was > 100 µM (inactive).

Regarding `CC1=NN(c2cccc(Cl)c2)C2(SCC(=O)N2c2nc3ccccc3s2)/C1=C\c1ccc(Cl)cc1` (centres undefined), the GI50 in the assay with 786-0 is 21.6 µM (inactive); with CCRF-CEM, 0.272 µM (active); with DU-145, 18.4 µM (inactive); in the assay with EKVX, 33.5 µM (inactive); with HCC 2998, 14.5 µM (inactive); in the assay with HL-60 it was 11.8 µM (inactive). In addition, the GI50 in the assay on IGROV-1 was 15 µM (inactive); in the assay on MDA-MB-231, 25.5 µM (inactive); in the assay on MDA-N it was 25.7 µM (inactive); in the assay on NCI-H226, 23.8 µM (inactive); with OVCAR-8 it was 18.9 µM (inactive); with SF-268 it was 17.9 µM (inactive). The GI50 is 26.2 µM (inactive) in the assay with SF-539; 24.5 µM (inactive) in the assay with SK-MEL-28; 2.81 µM (inactive) in the assay on SR; 13.8 µM (inactive) in the assay with U-251; 15.1 µM (inactive) with UO-31.

Regarding `CC(=O)N1N=C(c2ccc3ccccc3c2O)CC1c1ccc(N(C)C)cc1` (centres undefined), the GI50 in the assay on 786-0, in the assay with CCRF-CEM, in the assay with DU-145, in the assay with HCC 2998, with IGROV-1 and in the assay on MDA-MB-231 was > 100 µM (inactive) in each case. Also, the GI50 in the assay with MDA-N, in the assay on NCI-H226, with OVCAR-8, in the assay with SF-268, in the assay on SF-539 and with SK-MEL-28 was > 100 µM (inactive) in each case. Moreover, the GI50 is > 100 µM (inactive) in the assay with SN12C; > 100 µM (inactive) in the assay on SNB-75; 10.9 µM (inactive) in the assay with SR; > 100 µM (inactive) in the assay on U-251; > 100 µM (inactive) with UO-31.

As to `O=C1C(O)=C(Cl)C(=O)c2c(O)ccc(O)c21`, the GI50 in the assay with 786-0, in the assay on CCRF-CEM, in the assay with DU-145, with EKVX, in the assay on HCC 2998 and in the assay on HL-60 was > 100 µM (inactive) each time. Also, the GI50 in the assay on IGROV-1, in the assay on MDA-MB-231, in the assay with MDA-N, in the assay on OVCAR-8, in the assay with SF-268 and in the assay on SF-539 was > 100 µM (inactive) throughout. In addition, the GI50 in the assay on SK-MEL-28, with SNB-75, in the assay on SR, with U-251 and in the assay with UO-31 was > 100 µM (inactive) throughout.

With `O=C1c2cccc3cc([N+](=O)[O-])cc(c23)C(=O)N1O`, the GI50 in the assay with 786-0 is 45.2 µM (inactive); in the assay with CCRF-CEM, 27 µM (inactive); in the assay on DU-145, 37.5 µM (inactive); in the assay on EKVX, 47.9 µM (inactive); in the assay on HCC 2998 it was 25.2 µM (inactive); with HL-60, > 100 µM (inactive). Besides, the GI50 is 22.9 µM (inactive) in the assay on IGROV-1; 14.2 µM (inactive) in the assay on MDA-MB-231; 47 µM (inactive) in the assay with MDA-N; 31 µM (inactive) in the assay on NCI-H226; 44.5 µM (inactive) with OVCAR-8; 85.3 µM (inactive) in the assay with SF-268. Besides, the GI50 in the assay on SK-MEL-28 was 45.8 µM (inactive); with SN12C, 33.5 µM (inactive); in the assay on SR, 24.5 µM (inactive); in the assay on U-251 it was 41.8 µM (inactive); with UO-31, 31.7 µM (inactive).

Consider `CS(=O)(=O)OCCCSCCSCCCOS(C)(=O)=O`, for which the GI50 in the assay with 786-0, in the assay on CCRF-CEM, in the assay on DU-145, with EKVX, in the assay on HCC 2998 and with HL-60 was > 100 µM (inactive) each time. Also, the GI50 in the assay on IGROV-1, in the assay with MDA-MB-231, with MDA-N, in the assay on OVCAR-8, in the assay on SF-268 and in the assay on SF-539 was > 100 µM (inactive) throughout. Moreover, the GI50 with SK-MEL-28, in the assay with SN12C, in the assay with SNB-75, in the assay on SR, in the assay on U-251 and in the assay on UO-31 was > 100 µM (inactive) each time.

In the case of `CC(=O)/C=c1\[nH]/c(=C\C=C\c2ccccc2)c(=O)n1/C=C1\C(=O)Oc2ccccc2C1=O`, the GI50 in the assay on 786-0 is > 100 µM (inactive); in the assay with CCRF-CEM it was > 100 µM (inactive); in the assay with DU-145, > 100 µM (inactive); with EKVX it was 40.6 µM (inactive); in the assay with HL-60 it was > 100 µM (inactive); in the assay on IGROV-1 it was > 100 µM (inactive). Also, the GI50 with MDA-MB-231, with MDA-N, in the assay on NCI-H226, in the assay with OVCAR-8, in the assay with SF-268 and in the assay on SF-539 was > 100 µM (inactive) in each case. Moreover, the GI50 was > 100 µM (inactive) in the assay on SK-MEL-28; 59.4 µM (inactive) in the assay with SNB-75; > 100 µM (inactive) with SR; > 100 µM (inactive) in the assay on U-251; > 100 µM (inactive) in the assay with UO-31.

Turning to `C=CC[C@H](C)CCC(=O)N1[C@H]2CC3CC[C@@]2(CS1(=O)=O)C3(C)C`, the GI50 in the assay with 786-0 was 50.6 µM (inactive); with CCRF-CEM, 18.7 µM (inactive); with DU-145, > 100 µM (inactive); in the assay on EKVX it was 51.1 µM (inactive); with HCC 2998 it was 49.2 µM (inactive); in the assay with HL-60, 25.1 µM (inactive). Moreover, the GI50 with IGROV-1 was > 100 µM (inactive); with MDA-MB-231, > 100 µM (inactive); with MDA-N, 79.8 µM (inactive); with NCI-H226 it was 51.5 µM (inactive); in the assay with OVCAR-8 it was 45.4 µM (inactive); in the assay on SF-268, 41.7 µM (inactive). Moreover, the GI50 was > 100 µM (inactive) with SK-MEL-28; 85.5 µM (inactive) with SN12C; 31.5 µM (inactive) with SR; 56.1 µM (inactive) in the assay with U-251; 40.7 µM (inactive) with UO-31.

On to `C[C@]12CCC(=O)C=C1CC[C@@H]1[C@@H]2CC[C@]2(C)C(=O)[C@H](n3ccnc3)C[C@@H]12`, for which the GI50 in the assay with 786-0 was > 100 µM (inactive); in the assay with CCRF-CEM, 58.6 µM (inactive); in the assay with DU-145, > 100 µM (inactive); in the assay on EKVX it was > 100 µM (inactive); with HL-60 it was 21.9 µM (inactive); with IGROV-1, > 100 µM (inactive). The GI50 with MDA-MB-231, in the assay on MDA-N, in the assay on NCI-H226, in the assay on OVCAR-8, in the assay on SF-268 and with SF-539 was > 100 µM (inactive) each time. Also, the GI50 with SK-MEL-28 is > 100 µM (inactive); in the assay on SN12C, > 100 µM (inactive); in the assay with SNB-75 it was > 100 µM (inactive); with SR it was 74.1 µM (inactive); with U-251 it was > 100 µM (inactive); in the assay on UO-31, > 100 µM (inactive).

On to `Cn1/c(=N\N=C(\CNCCO)[C@@H](O)[C@@H]2OC(c3ccccc3)OC[C@H]2O)sc2ccccc21` (some centres undefined), for which the GI50 is 18 µM (inactive) in the assay with 786-0; 17.8 µM (inactive) in the assay with CCRF-CEM; 18.5 µM (inactive) in the assay with DU-145; 15.4 µM (inactive) in the assay with EKVX; 11.3 µM (inactive) in the assay on HCC 2998; 15.8 µM (inactive) with IGROV-1. The GI50 in the assay with MDA-MB-231 was 15.2 µM (inactive); with MDA-N, 17.6 µM (inactive); in the assay with OVCAR-8, 19.2 µM (inactive); in the assay on SF-268, 15.5 µM (inactive); with SF-539, 17.5 µM (inactive); with SK-MEL-28, 17.3 µM (inactive). The GI50 in the assay with SN12C was 17.9 µM (inactive); in the assay on SNB-75 it was 16 µM (inactive); in the assay on SR, 19 µM (inactive); with U-251, 17.3 µM (inactive); in the assay on UO-31, 15.4 µM (inactive).
